Laboratory results: US20260028340A1 (Supernus Pharmaceuticals, Inc., priority 2023, published 2026)

Test: Pharmacokinetic data in CD-1 mice after oral administration
Assay type: in vivo
Conditions: mouse, serum, Table 7: CD-1 mice, nominal dose 5.10 mg/kg Cmpd. A or 6.57-8.40 mg/kg DV salt, analyte: dosed derivative (DV)
In the case of `CC(C)/C=C/COC1(c2ccc(Cl)cc2)c2ccccc2C2=NCCN21` (stereo not drawn) [Compound I-17, (E)-5-(4-chlorophenyl)-5-((4-methylpent-2-en-1-yl)oxy)-2,5-dihydro-3H-imidazo[2,1-a]isoindole], the AUC(0-inf) is reported as 33.2 ng·h/mL, the AUC(0-t) is reported as 27.6 ng·h/mL and the Cmax is reported as 25.7 ng/mL. The Tmax was 15 min and the half-life was 78 min.
In the case of `Clc1ccc(C2(OCC3OCCO3)c3ccccc3C3=NCCN32)cc1` (stereo not drawn) [Compound I-19, 5-((1,3-dioxolan-2-yl)methoxy)-5-(4-chlorophenyl)-2,5-dihydro-3H-imidazo[2,1-a]isoindole], the AUC(0-t) is reported as 2.04 ng·h/mL, the Cmax is reported as 4.27 ng/mL and the Tmax is reported as 20 min.
Compound `COc1ccc(COC2(c3ccc(Cl)cc3)c3ccccc3C3=NCCN32)cc1OC` (stereo not drawn) [Compound I-15, 5-(4-chlorophenyl)-5-((3,4-dimethoxybenzyl)oxy)-2,5-dihydro-3H-imidazo[2,1-a]isoindole] has an AUC(0-inf) of 16 ng·h/mL, an AUC(0-t) of 12.7 ng·h/mL and a Cmax of 17.8 ng/mL. The Tmax was 20 min and the half-life was 29.8 min.
Compound `FC(F)(F)c1ccc(/C=C/COC2(c3ccc(Cl)cc3)c3ccccc3C3=NCCN32)cc1` (stereo not drawn) [Compound I-18, (E)-5-(4-chlorophenyl)-5-((3-(4-(trifluoromethyl)phenyl)allyl)oxy)-2,5-dihydro-3H-imidazo[2,1-a]isoindole] has an AUC(0-inf) of 792 ng·h/mL, an AUC(0-t) of 677 ng·h/mL and a Cmax of 187 ng/mL. It also gave a Tmax of 30 min and a half-life of 237 min.
`FC(F)(F)c1ccc(COC2(c3ccc(Cl)cc3)c3ccccc3C3=NCCN32)cc1` (stereo not drawn) [Compound I-14, 5-(4-chlorophenyl)-5-((4-(trifluoromethyl)benzyl)oxy)-2,5-dihydro-3H-imidazo[2,1-a]isoindole] showed an AUC(0-inf) of 215 ng·h/mL, an AUC(0-t) of 183 ng·h/mL and a Cmax of 56.1 ng/mL. The Tmax was 30 min and the half-life was 163 min.
With `Clc1ccc(COC2(c3ccc(Cl)cc3)c3ccccc3C3=NCCN32)cc1` (stereo not drawn) [Compound I-16, 5-((4-chlorobenzyl)oxy)-5-(4-chlorophenyl)-2,5-dihydro-3H-imidazo[2,1-a]isoindole] the AUC(0-inf) was 224 ng·h/mL, the AUC(0-t) was 174 ng·h/mL and the Cmax was 53.3 ng/mL. For the same compound, the Tmax was 35 min and the half-life was 194 min.

Test: as above
Assay type: in vivo
Conditions: 10 mg/kg molar equivalent to Cmpd. A (nominal), serum, analyte: A
Procedure: Pharmacokinetic (PK) data was generated using twelve CD-1 mice treated with oral administration of the compound with a dose volume of 10 mg/kg (a molar equivalent to 5-(4-chlorophenyl)-2,3-dihydroimidazo[1,2-b]isoindol-5-ol (“Compound A,” “Cmpd. A,” or “A”)), and a nominal strength of 1 mg/mL. The serum was analyzed in triplicate with 200 mM K2EDTA anticoagulant.
With `CC(C)(C(=O)N1CCN=C1c1ccccc1C(=O)c1ccc(Cl)cc1)C(=O)N1CCN=C1c1ccccc1C(=O)c1ccc(Cl)cc1` [III-1, 1,3-bis(2-(2-(4-chlorobenzoyl)phenyl)-4,5-dihydro-1H-imidazol-1-yl)-2,2-dimethylpropane-1,3-dione] the “PK parameters / level of analyte A (Cmpd. A) after dosing the derivative” value (“PK parameters / level” below) was “NC (BLQ at all the time points)”.
With `O=C(c1ccc(Cl)cc1)c1ccccc1C1=NCCN1C(=O)c1ccc2c(c1)OCO2` [II-4, benzo[d][1.3]dioxol-5-yl(2-(2-(4-chlorobenzoyl)phenyl)-4,5-dihydro-1H-imidazol-1-yl) methanone] the “PK parameters / level” value was “NC (BLQ at all the time points)”.
With `CC(C)C(NC(=O)OC(C)(C)C)C(=O)N1CCN=C1c1ccccc1C(=O)c1ccc(Cl)cc1` (stereo not drawn) the “PK parameters / level” value was “NC (BLQ at all the time points)”.

Same assay, conditions: mouse, 10 mg/kg molar equivalent to Cmpd. A (nominal), serum, analyte: dosed derivative (DV)
Compound `Clc1ccc(C2(OCc3ccc4c(c3)OCO4)c3ccccc3C3=NCCN32)cc1` (stereo not drawn) [Compound I-7, 5-(benzo[d][1.3]dioxol-5-ylmethoxy)-5-(4-chlorophenyl)-2,5-dihydro-3H-imidazo[2,1-a]isoindole] has an AUC(0-inf) of 358 ng·h/mL, an AUC(0-t) of 307 ng·h/mL and a Cmax of 211 ng/mL. It also gave a Tmax of 15 min and a half-life of 85.2 min.
`COc1ccc(C(=O)N2CCN=C2c2ccccc2C(=O)c2ccc(Cl)cc2)cc1` [II-2, (2-(2-(4-chlorobenzoyl)phenyl)-4,5-dihydro-1H-imidazol-1-yl) (4-methoxyphenyl) methanone] gave an AUC(0-inf) of 624 ng·h/mL, an AUC(0-t) of 611 ng·h/mL and a Cmax of 170 ng/mL. For the same compound, the Tmax was 30 min and the half-life was 81.6 min.
`C=CCOC1(c2ccc(Cl)cc2)c2ccccc2C2=NCCN21` (stereo not drawn) [Compound I-3, 5-(allyloxy)-5-(4-chlorophenyl)-2,5-dihydro-3H-imidazo[2,1-a]isoindole] gave an AUC(0-inf) of 88.9 ng·h/mL, an AUC(0-t) of 73.7 ng·h/mL and a Cmax of 52.9 ng/mL. For the same compound, the Tmax was 30 min and the half-life was 102 min.
In the case of `COCCOC1(c2ccc(Cl)cc2)c2ccccc2C2=NCCN21` (stereo not drawn) [Compound I-4, 5-(4-chlorophenyl)-5-(2-methoxyethoxy)-2,5-dihydro-3H-imidazo[2,1-a]isoindole], the AUC(0-inf) is reported as 586 ng·h/mL, the AUC(0-t) is reported as 568 ng·h/mL and the Cmax is reported as 475 ng/mL. It also gave a Tmax of 15 min and a half-life of 108 min.
`CC(C)(C(=O)N1CCN=C1c1ccccc1C(=O)c1ccc(Cl)cc1)C(=O)N1CCN=C1c1ccccc1C(=O)c1ccc(Cl)cc1` [III-1, 1,3-bis(2-(2-(4-chlorobenzoyl)phenyl)-4,5-dihydro-1H-imidazol-1-yl)-2,2-dimethylpropane-1,3-dione] gave an AUC(0-inf) of 369 ng·h/mL, an AUC(0-t) of 366 ng·h/mL and a Cmax of 238 ng/mL. For the same compound, the Tmax was 15 min and the half-life was 72 min.
Compound `O=C(c1ccc(Cl)cc1)c1ccccc1C1=NCCN1C(=O)c1ccccc1` [II-1, (2-(1-benzoyl-4,5-dihydro-1H-imidazol-2-yl)phenyl) (4-chlorophenyl) methanone] has an AUC(0-inf) of 21.8 ng·h/mL, an AUC(0-t) of 19.8 ng·h/mL and a Cmax of 43 ng/mL. The Tmax was 15 min and the half-life was 100 min.
For `CC(C)=CCOC1(c2ccc(Cl)cc2)c2ccccc2C2=NCCN21` (stereo not drawn) [Compound I-9, 5-(4-chlorophenyl)-5-((3-methylbut-2-en-1-yl)oxy)-2,5-dihydro-3H-imidazo[2,1-a]isoindole], the AUC(0-inf) was 59.8 ng·h/mL, the AUC(0-t) was 55.1 ng·h/mL and the Cmax was 124 ng/mL. The Tmax was 15 min and the half-life was 85.2 min.
`CN1CCN(C(=O)N2CCN=C2c2ccccc2C(=O)c2ccc(Cl)cc2)CC1` [II-6, (2-(2-(4-chlorobenzoyl)phenyl)-4,5-dihydro-1H-imidazol-1-yl) (4-methylpiperazin-1-yl) methanone] showed an AUC(0-inf) of 548 ng·h/mL, an AUC(0-t) of 531 ng·h/mL and a Cmax of 752 ng/mL. For the same compound, the Tmax was 15 min and the half-life was 51 min.
In the case of `COc1ccc(COC2(c3ccc(Cl)cc3)c3ccccc3C3=NCCN32)cc1` (stereo not drawn) [Compound I-2, 5-(4-chlorophenyl)-5-((4-methoxybenzyl)oxy)-2,5-dihydro-3H-imidazo[2,1-a]isoindole], the AUC(0-inf) is reported as 268 ng·h/mL, the AUC(0-t) is reported as 260 ng·h/mL and the Cmax is reported as 234 ng/mL. For the same compound, the Tmax was 15 min and the half-life was 108 min.
Compound `Clc1ccc(C2(OCc3ccccc3)c3ccccc3C3=NCCN32)cc1` (stereo not drawn) [Compound I-1, 5-(benzyloxy)-5-(4-chlorophenyl)-2,5-dihydro-3H-imidazo[2,1-a]isoindole] has an AUC(0-inf) of 141 ng·h/mL, an AUC(0-t) of 137 ng·h/mL and a Cmax of 68.2 ng/mL. The Tmax was 15 min and the half-life was 96 min.
With `Cc1ccc(C(=O)N2CCN=C2c2ccccc2C(=O)c2ccc(Cl)cc2)cc1` [II-3, (2-(2-(4-chlorobenzoyl)phenyl)-4,5-dihydro-1H-imidazol-1-yl) (p-tolyl) methanone] the AUC(0-inf) was 182 ng·h/mL, the AUC(0-t) was 163 ng·h/mL and the Cmax was 81.6 ng/mL. For the same compound, the Tmax was 15 min and the half-life was 132 min.
In the case of `COCCOCCOCCOC1(c2ccc(Cl)cc2)c2ccccc2C2=NCCN21` (stereo not drawn) [Compound I-12, 5-(4-chlorophenyl)-5-(2-(2-(2-methoxyethoxy)ethoxy)ethoxy)-2,5-dihydro-3H-imidazo[2,1-a]isoindole], the AUC(0-t) is reported as 68.9 ng·h/mL, the Cmax is reported as 67.6 ng/mL and the Tmax is reported as 30 min.
In the case of `CCOC1(c2ccc(Cl)cc2)c2ccccc2C2=NCCN21` (stereo not drawn) [Compound I-8, 5-(4-chlorophenyl)-5-ethoxy-2,5-dihydro-3H-imidazo[2,1-a]isoindole], the AUC(0-inf) is reported as 72.4 ng·h/mL, the AUC(0-t) is reported as 48.5 ng·h/mL and the Cmax is reported as 32 ng/mL. It also gave a Tmax of 30 min and a half-life of 127 min.
`CC(C)=CCC/C(C)=C/COC1(c2ccc(Cl)cc2)c2ccccc2C2=NCCN21` (stereo not drawn) [Compound I-11, (E)-5-(4-chlorophenyl)-5-((3,7-dimethylocta-2,6-dien-1-yl)oxy)-2,5-dihydro-3H-imidazo[2,1-a]isoindole] showed an AUC(0-inf) of 44 ng·h/mL, an AUC(0-t) of 39.7 ng·h/mL and a Cmax of 27.7 ng/mL. The Tmax was 15 min and the half-life was 69.6 min.
Compound `O=C(c1ccc(Cl)cc1)c1ccccc1C1=NCCN1C(=O)c1ccc2c(c1)OCO2` [II-4, benzo[d][1.3]dioxol-5-yl(2-(2-(4-chlorobenzoyl)phenyl)-4,5-dihydro-1H-imidazol-1-yl) methanone] has an AUC(0-inf) of 238 ng·h/mL, an AUC(0-t) of 236 ng·h/mL and a Cmax of 50.3 ng/mL. For the same compound, the Tmax was 15 min and the half-life was 72 min.
With `COC1(c2ccc(Cl)cc2)c2ccccc2C2=NCCN21` (stereo not drawn) [Compound I-6, 5-(4-chlorophenyl)-5-methoxy-2,5-dihydro-3H-imidazo[2,1-a]isoindole] the AUC(0-inf) was 66.6 ng·h/mL, the AUC(0-t) was 64.7 ng·h/mL and the Cmax was 72 ng/mL. The Tmax was 30 min and the half-life was 51 min.
Work on `CC(C)=CCC/C(C)=C/CC/C(C)=C/COC1(c2ccc(Cl)cc2)c2ccccc2C2=NCCN21` (stereo not drawn) [Compound I-13, 5-(4-chlorophenyl)-5-(((2E,6E)-3,7,11-trimethyldodeca-2,6,10-trien-1-yl)oxy)-2,5-dihydro-3H-imidazo[2,1-a]isoindole] yielded an AUC(0-t) of 337 ng·h/mL, a Cmax of 201 ng/mL and a Tmax of 30 min.
With `CC(C)COC1(c2ccc(Cl)cc2)c2ccccc2C2=NCCN21` (stereo not drawn) [Compound I-10, 5-(4-chlorophenyl)-5-isobutoxy-2,5-dihydro-3H-imidazo[2,1-a]isoindole] the AUC(0-inf) was 112 ng·h/mL, the AUC(0-t) was 94.6 ng·h/mL and the Cmax was 82.5 ng/mL. It also gave a Tmax of 15 min and a half-life of 97.8 min.
Work on `CC(C)C(NC(=O)OC(C)(C)C)C(=O)N1CCN=C1c1ccccc1C(=O)c1ccc(Cl)cc1` (stereo not drawn) yielded an AUC(0-t) of 56.5 ng·h/mL, a Cmax of 61.2 ng/mL and a Tmax of 15 min.
